This assay concerns KB. In words: Cytotoxicity against human KB cells. The class given is functional. To be noted: read-out: ED50 (the source's name).

In brackets after ≈: the same amount, converted by molar mass.

The source of these data is ChEMBL document CHEMBL1151148, “Antitumor agents, 112. Emarginatine B, a novel potent cytotoxic sesquiterpene pyridine alkaloid from Maytenus emarginata” (1990).

For `CC(=O)OC[C@]12[C@H](OC(C)=O)[C@H](OC(C)=O)[C@@H]3[C@@H](OC(C)=O)[C@@]14O[C@@]3(C)COC(=O)c1cccnc1[C@H](C)[C@H](C)C(=O)O[C@@H]([C@H](OC(=O)c1ccc(=O)n(C)c1)[C@@H]2OC(C)=O)[C@@]4(C)O` [EMARGINATINE A], the EC50 amounted to 4 mg/L (≈ 4.45 µM).
As to `CC(=O)OC[C@]12[C@H](OC(=O)c3ccccc3)[C@@H](OC(C)=O)[C@@H]3[C@@H](OC(C)=O)[C@@]14O[C@@]3(C)COC(=O)c1cccnc1[C@H](C)[C@H](C)C(=O)O[C@@H]([C@H](OC(=O)c1ccc(=O)n(C)c1)[C@@H]2OC(C)=O)[C@@]4(C)O` [EMARGINATINE B], the EC50 stood at 0.4 mg/L (≈ 0.416 µM).
